Measurements from PMC12775124, “CUL4A-DDB1-DCAF10 is an N-recognin for N-terminally acetylated Src kinases” (Nature Communications, 2026).

Columns and labels:
CUL4A-DDB1-DCAF10 = experiment: In vitro ubiquitination of Lyn-GFP variants by CUL4A-DDB1-DCAF10; format: biochemical, human; conditions: for Increase of in vitro ubiquitination under NMT1/2 siRNA: WT E3 complex, IP from NMT1/2 siRNA vs control DLD-1 cells
Description: Lyn^WT-GFP was ubiquitinated by the WT E3 complex in both conditions; however, unlike in vitro ubiquitination with endogenous Lyn (Fig. 5c, d), ubiquitination increased ~6-fold under NMT1/2 siRNA conditions. This is consistent with DCAF10 being limiting and overexpressed Lyn-GFP, accumulating an acetylated fraction available for DCAF10 in vitro. Then, we performed IPs for all Nt variants under NMT1/2 siRNA conditions (Fig. 6d, h–i). […] In vitro ubiquitination assays using untreated cell lysates led to similar results (Supplementary Fig. 7h, i).
Reactions contained E1, UBCH5B (E2), ubiquitin, Mg-ATP in ligation buffer and were incubated with bead-bound substrates, followed by washing and immunoblot detection of ubiquitinated species (anti-ubiquitin), with loading controls (anti-Lyn, -Fyn, -Src or -GFP) (n = 3 independent enzymatic assays). Complete reagent lists, complex preparation, substrate IP conditions, wash buffers, and gel/blot parameters are provided in the Supplementary Methods and Tables.
357 (v/v) glycerol, 2 mM TCEP, supplemented with Protease Inhibitor Cocktail), and lysed
358 by sonication. Lysates were cleared by centrifugation at 28,000 rpm for 45 min at 4 °C
359 using a JA-30.50 rotor (Beckman Coulter, Brea, CA, USA). The cleared and filtered (0.8
360 µm) lysate was applied to 1 mL of Strep-Tactin®XT 4Flow® resin (iba), pre-equilibrated
361 once with wash buffer (100 mM Tris-HCl pH 8.0, 150 mM NaCl, 1 mM EDTA) and lysis
362 buffer. The lysate was incubated on a tube roller for 16 h at 4 °C. After incubation, beads
363 were washed with 50 mL of lysis buffer. Bound proteins were eluted with 10 mL of lysis
364 buffer supplemented with 50 mM biotin, after 15 min incubation on a tube roller at 4 °C.
366 Superdex 200 10/300 or 16/60 SEC column (GE Healthcare, Chicago, IL, USA),
367 preequilibrated in SEC buffer (250 mM Tris pH 7.5, 250 mM NaCl, 10% (v/v) glycerol,
370 Purified proteins were visualized during and after the purification by SDS-gels containing
371 TCE (2,2,2-trichloroethanol)62. The identity of proteins was confirmed by WB and MS.
373 In vitro ubiquitination assays
374 The in vitro ubiquitination assays were performed as previously described8. In brief,
375 E1 (50 nM), UBCH5B (250 nM), ubiquitin (1.5 µg), Mg-ATP (3 mM), ligation buffer,
376 and water were pre-mixed. The premix was divided, and either CUL4A-RBX1-
378 RBX1DDB1 (-DCAF10) (250 nM each) was added. 15 μL of each premix were incubated
379 with substrates (endogenous Lyn or Lyn-GFP constructs) bound to beads for 1 h at 30°C
380 with shaking. Samples were then washed four to five times with a buffer containing 50 […]
382 EDTA, and loaded on a gradient gel (4–15%). Ubiquitination of substrates was assessed
383 by WB using an anti-ubiquitin antibody. Equal substrate loading was evaluated by anti- […]

pY397 Lyn = experiment: Phosphorylation of Lyn-GFP variants at pY397, Western blot (reviewers only); format: cell-based, human; conditions: preliminary experiment, unstimulated cells, three independent blots
Description: distinct in term of phospho-tyrosine activity?
We agree that understanding the functional consequences of N-terminal acetylation versus myristoylation—particularly regarding kinase activity and localization—is among the most relevant questions and a key next step in this project. As an initial indication, we performed a preliminary experiment using full-length Lyn constructs (LynWT-GFP, LynG2A-GFP, and LynG2P-GFP) with or without NMT1/2 RNAi and probed the activating phospho-tyrosine site of Lyn (pY397). We observed marked […]
upon NMT1/2 knockdown specifically at the activating pY397 site, while global pY levels appeared to be largely unchanged in these unstimulated cells, […] (Figure 2 provided to reviewers only). […]
have not included them in the manuscript but provide them for the reviewers’ information only, as we are working on consequences for kinase activity and biological role. We plan to pursue a systematic analysis under stimulated conditions, quantifying pY patterns and localization changes to define how the N-terminal state affects SFK signaling output. […]
Fig. 2 for reviewers only. a) LynWT-GFP, LynG2A-GFP and LynG2P-GFP expressing cells were treated with NMT1/2 RNAi or left untreated and then blotted against anti-pY397 Lyn, pan-anti-pY and controls. b) Quantification of three independent blots. […]

DCAF10 = experiment: Peptide pull-down with quantitative MS, mouse liver lysate, DCAF10; format: binding
Description: Biotinylated 10-mer Nt-peptides (Nt-free, Nt-acetylated, and, where indicated, Nt-myristoylated; sequences in Supplementary Table 1) were synthesized with a C-terminal Lys3 spacer and biotin, immobilized on magnetic streptavidin beads, and incubated with HeLa or mouse liver lysates. After standardized washes, bound proteins were on-bead reduced/alkylated, digested with LysC/trypsin, desalted, and analysed by LC-MS in DIA mode (Orbitrap Exploris 480) as described previously[24]. Variants included endogenous Nt-sequences, swap and mutant (Ala-Ala-Ala or Nt-amino acids) peptides, and pairwise comparisons of conditions of interest.
Briefly, magnetic streptavidin beads (DynabeadsTM
Beads were then washed three times with PBS.
210 washing, 1 mg of HeLa lysates or 2 mg of liver lysates was taken, and lysis buffer (75
Lysates were incubated with streptavidin
HeLa pull-downs were washed twice with lysis buffer and twice
Liver pulldowns were washed twice with cold low salt buffer (50 mM
220 individually ventilated cages under a 12-h light/dark cycle and were provided with sterile
No animal procedures were performed specifically for this
230 of 1:100), and desalted/concentrated on C18 reversed phase stage tips as previously
526 Mass spectrometry measurements and raw file processing
527 Samples (peptide pull-downs, IPs and high-pH fractionations) were separated on an […]

Substance	In vitro ubiquitination (in words) (CUL4A-DDB1-DCAF10; Lyn-GFP variants, NMT1/2 siRNA)	Increase of in vitro ubiquitination under NMT1/2 siRNA (CUL4A-DDB1-DCAF10)	Increase of in vitro ubiquitination under NMT1/2 siRNA (CUL4A-DDB1-DCAF10; listed as LynWT–GFP) [fold]	Decrease of pY397 phosphorylation upon NMT1/2 knockdown (pY397 Lyn)	DCAF10 binding (in words) (DCAF10)
Lyn^WT-GFP: doxycycline-inducible C-terminally GFP-fused Lyn in DLD-1 Lyn KO cells	robustly ubiquitinated by the WT E3 complex	~ 6 fold	> 5	approximately 15%	–
GCIKSKGKDSKK [Ac-Lyn, Nt-peptide of Lyn (aa 1–10 + KKK-biotin), Nt-acetylated]	–	–	–	–	confirmed DCAF10 binding
